The nature of series [1]: Toxicity to rats, acute oral median lethal dose (LD50), Method A. The class given is in vivo, young female albino rats, derived from Sprague-Dawley stock. The conditions noted are these: in vivo, rat, corn oil, 14 days observation. The method, then: (§1) Method A: Young female albino rats, derived from Sprague-Dawley stock and weighing between 175 and 200 g, were used. An initial screening was conducted to determine the general level of toxicity of the test compounds and to establish the dosing range to be used with each compound. The test materials were suspended in corn oil and administered directly into the stomachs of the rats, using a hypodermic syringe equipped with a ball-tipped intubating needle. A range of dosing levels was employed utilizing two rats at each level. […] This method was used to determine the toxicity to rats of the compounds of Examples I, II, and III and aldicarb.

Series [2] has as its system Plum curculio. Briefly: Residual (7-day) contact activity, plum curculio. It counts as in vivo, Conotrachelus nenuphar [Herbst]. The conditions noted are these: for mortality at 156 ppm / mortality at 312 ppm / mortality at 625 ppm / mortality at 1250 ppm: Conotrachelus nenuphar, 168 h, read-out: Percent Kill. The method, then:
(§2) Initial Contact Activity: One half gram of test compound was dissolved in 40 ml of acetone and this solution was dispersed in 360 ml of water containing one drop of isooctylphenyl polyethoxyethanol. Aliquots of this solution, which corresponds to 1250 ppm of active ingredient, were diluted with an appropriate amount of water to provide solutions containing various concentrations of active ingredient. Test organisms and techniques were as follows: The activity against the Mexican bean beetle (Epilachna varivestis Muls.) and the southern armyworm (Spodoptera eridania [Cram.]) was evaluated by dipping the leaves of pinto bean plants into the test solution and infesting the leaves with the appropriate immature-form insects when the foiliage had dried; the activity against the pea aphid (Acyrthosiphon pisum [Harris]) was evaluated on broad bean plants whose leaves were dipped before infestation with adult aphids; the activity against two-sotted spider mites (Tetranychus urticae Koch) was evaluated on pinto bean plants whose leaves were dipped after infestation with adult mites; the activity against the milkweed bug (Oncopeltus fasciatus [Dallas]), and the plum curculio (Conotrachelus nenuphar [Herbst]) was evaluated by spraying the test solutions into glass dishes or jars containing the adult insects; the activity against the confused flour beetle (Tribolium confusum duVal) was evaluated by introducing the insects into glass dishes which had been previously sprayed with test solution and allowed to dry. All organisms in the test were maintained in a holding room at 80° F and 50% relative humidity for an exposure period of 48 hours. At the end of this time, the dead and living insects or mites were counted, and the percent kill was calculated.
(§3) Residual Contact Activity: The residual contact activity of the compounds was determined on the same organisms using the techniques described above, except that in each case the treated surface was allowed to dry and was exposed to normal light and air for seven days before introduction of the mites or insects.

Series [3] concerns Plum curculio. Briefly: Initial contact activity, spray, plum curculio. The class given is in vivo, Conotrachelus nenuphar [Herbst]. The conditions noted are these: Conotrachelus nenuphar, read-out: Percent Kill. The method, then:
as §2

Another series deals with Pea aphid. Briefly: Systemic activity, soil-watering, pea aphid. The class given is in vivo, Acyrthosiphon pisum [Harris]. On the procedure: as §2
(§4) Systemic Activity: Systemic activity was measured using a soil-watering technique. Test organisms were Mexican bean beetle, southern armyworm, pea aphid, and mites on plants as described above in this Example. With appropriate precautions to avoid contact of the solution with the test plant surfaces, 25 ml of a test solution, prepared as above to contain the desired amount of active ingredient, were poured evenly over the surface of the soil in which the plant was growing. The treated plants were maintained under normal growing conditions for three days to permit translocation of the toxicant, after which the leaves were infested. Two days after infestation, counts of living and dead insects were made.

Another series has as its system Two-spotted spider mite. The series is described as follows: Initial contact activity, leaf dip, two-spotted spider mite. The conditions noted are these: for mortality at 5 ppm / mortality at 10 ppm / mortality at 20 ppm / mortality at 39 ppm / mortality at 156 ppm / mortality at 1250 ppm: Tetranychus urticae, foliar, 48 h; for Percent Kill: 2880 min. It counts as in vivo, Tetranychus urticae Koch. The method, then: as §2

In another series the test system is Southern armyworm. The series is described as follows: Residual (7-day) contact activity, southern armyworm. The class given is in vivo, Spodoptera eridania [Cram.]. The conditions noted are these: Spodoptera eridania, 168 h; for mortality at 625 ppm: read-out: Percent Kill, residual 7-day, AW, 625 PPM. The method, then:
as §2, §3

The test system of a further series is rats. Briefly: Toxicity to rats, acute oral median lethal dose (LD50), Method A. It counts as in vivo, young female albino rats, derived from Sprague-Dawley stock. To be noted: rat; for Enhancement LD50 Derivative/LD50 Aldicarb: ratio to aldicarb. On the procedure: as §1
A further series deals with insects and mites. The series is described as follows: Systemic activity (soil-watering), insects and mites in general. The class given is in vivo. To be noted: in words. The method, then:
as §4

Setting [4] is: initial, PC, 1250 PPM, 48 hours.
The mark [5] stands for this setting: Acyrthosiphon pisum, 48 h, systemic, PA, 10 PPM, read-out: Percent Kill.
The mark [6] stands for this setting: Acyrthosiphon pisum, 48 h, systemic, PA, 39 PPM, read-out: Percent Kill.
Setting [7] is: initial, SM, 10 PPM, 48 hours, read-out: Percent Kill.
The mark [8] stands for this setting: initial, SM, 39 PPM, 48 hours, read-out: Percent Kill.
[9] abbreviates: initial, SM, 156 PPM, 48 hours, read-out: Percent Kill.
Where [10] appears, read: initial, SM, 1250 PPM, 48 hours, read-out: Percent Kill.
[11] abbreviates: residual 7-day, AW, 312 PPM, read-out: Percent Kill.
The mark [12] stands for this setting: residual 7-day, AW, read-out: Percent Kill.

Read-outs that look alike come from different tables or passages of the source.

What is called LD50 is the dose expected to kill half of the subjects tested. The low end stands for greater toxicity, the high end for lower toxicity.

`CNC(=O)ON=CC(C)(C)SC` [Aldicarb, 2-methyl-2-(methylthio)propanal O-(methylcarbamoyl)oxime] gave an LD50 at 336 h in series [1] of 0.5 mg/kg. For the same compound, the mortality at 156 ppm in the series on Plum curculio [2] is 4.8%; with Plum curculio [3] (48 h) it was 100%; with Two-spotted spider mite (read-out: Percent Kill, initial, SM, 156 PPM, 48 hours) it was 100%. Besides, the mortality at 312 ppm in the series with Plum curculio [2] stood at 32%; with Southern armyworm (read-out: Percent Kill, residual 7-day, AW, 312 PPM), 0%. For the same compound, the mortality at 625 ppm in the series with Plum curculio [2] and in the series on Southern armyworm was 0% in each case. In addition, the mortality at 1250 ppm in the series with Plum curculio [2] is 0%; with Plum curculio [3] (48 h), 100%; in the series on Two-spotted spider mite (read-out: Percent Kill, initial, SM, 1250 PPM, 48 hours), 100%. Also, the “Percent Kill” value was found to be 0% with Plum curculio [2] (residual 7-day, PC, 1250 PPM); 100% with Pea aphid (systemic, PA, 10 PPM, 2880 min); 100% in the series with Two-spotted spider mite (initial, SM, 10 PPM, 48 hours); 95% in the series with Two-spotted spider mite (initial, SM, 1250 PPM, 48 hours). Also, the mortality at 10 ppm in the series on Plum curculio [3] (48 h) came out at 10%; with Pea aphid (Acyrthosiphon pisum, 48 h, read-out: Percent Kill, systemic, PA, 10 PPM), 90%; in the series on Two-spotted spider mite (read-out: Percent Kill, initial, SM, 10 PPM, 48 hours), 88%. For the same compound, the mortality at 39 ppm was 35% with Plum curculio [3] (48 h); 100% in the series with Pea aphid (Acyrthosiphon pisum, 48 h, read-out: Percent Kill, systemic, PA, 39 PPM); 100% in the series on Two-spotted spider mite (read-out: Percent Kill, initial, SM, 39 PPM, 48 hours). The mortality at 5 ppm in the series on Pea aphid (Acyrthosiphon pisum, 48 h, read-out: Percent Kill, systemic, PA, 5 PPM) worked out at 100%; in the series on Two-spotted spider mite (read-out: Percent Kill, initial, SM, 5 PPM, 48 hours), 21%. In the series with Pea aphid (Acyrthosiphon pisum, 48 h, read-out: Percent Kill, systemic, PA, 321 PPM), the mortality at 321 ppm was 100%. For the same compound, the mortality at 20 ppm in the series with Two-spotted spider mite (read-out: Percent Kill, initial, SM, 20 PPM, 48 hours) stood at 100%.
For `CSC(C)(C)C=NOC(=O)N(C)SN(C)Cc1ccccc1` [Example I, 2-methyl-2-(methylthio)propanol O-[(N-benzyl-N-methylaminosulfenyl)(methyl)carbamoyl]oxime], in series [1], the LD50 at 336 h was found to be 9.4 mg/kg. For the same compound, in the series with rats, the “LD50 relative to that of aldicarb” value is 19 times. For the same compound, the “Enhancement LD50 Derivative/LD50 Aldicarb” value with rats is listed as 19. In addition, the mortality at 156 ppm is 23% with Plum curculio [2] (residual 7-day, PC, 156 PPM); 0% with Plum curculio [3] (initial, PC, 156 PPM, 48 hours); 100% with Two-spotted spider mite (setting [9]). The mortality at 312 ppm with Plum curculio [2] (residual 7-day, PC, 312 PPM) is 43%; in the series with Southern armyworm (setting [11]), 0%. In addition, the mortality at 1250 ppm in the series with Plum curculio [2] (residual 7-day, PC, 1250 PPM) came to 20%; in the series with Plum curculio [3] (setting [4]) it was 45%; in the series with Two-spotted spider mite (setting [10]), 100%; in the series on Southern armyworm (setting [12]), 91%. In addition, the mortality at 10 ppm in the series with Plum curculio [3] (initial, PC, 10 PPM, 48 hours) turned out to be 10%; in the series with Pea aphid (setting [5]), 0%; in the series on Two-spotted spider mite (setting [7]), 96%. For the same compound, the mortality at 39 ppm came out at 0% with Plum curculio [3] (initial, PC, 39 PPM, 48 hours); 100% in the series on Pea aphid (setting [6]); 98% in the series on Two-spotted spider mite (setting [8]).
Turning to `CSC(C)(C)C=NOC(=O)N(C)SN1CCOCC1` [Example II, 2-methyl-2-(methylthio)propanol O-[(N-methyl-N-morpholinosulfenyl)carbamoyl]oxime], in series [1], the LD50 at 336 h worked out at 1.2 mg/kg. In addition, the “LD50 relative to that of aldicarb” value in the series on rats is on record as 2.4 times. Also, in the series on rats, the “Enhancement LD50 Derivative/LD50 Aldicarb” value turned out to be 2.4. Further, the mortality at 156 ppm in the series with Plum curculio [2] (residual 7-day, PC, 156 PPM) was determined as 10%; in the series on Plum curculio [3] (initial, PC, 156 PPM, 48 hours) it was 47%; with Two-spotted spider mite (setting [9]) it was 100%. Moreover, the mortality at 312 ppm in the series on Plum curculio [2] (residual 7-day, PC, 312 PPM) was 5%; in the series with Southern armyworm (setting [11]), 64%. Further, the mortality at 1250 ppm in the series on Plum curculio [2] (residual 7-day, PC, 1250 PPM) was found to be 37%; in the series on Plum curculio [3] (setting [4]) it was 100%; in the series on Two-spotted spider mite (setting [10]) it was 100%; with Southern armyworm (setting [12]), 55%. Besides, the mortality at 10 ppm was 0% in the series with Plum curculio [3] (initial, PC, 10 PPM, 48 hours); 40% with Pea aphid (setting [5]); 100% with Two-spotted spider mite (setting [7]). The mortality at 39 ppm with Plum curculio [3] (initial, PC, 39 PPM, 48 hours) was determined as 5%; in the series on Pea aphid (setting [6]), 100%; with Two-spotted spider mite (setting [8]), 100%.
In the case of `CCCCN(CCCC)SN(C)C(=O)ON=CC(C)(C)SC` [Example III, 2-methyl-2-(methylthio)propanal O-[(dibutylaminosulfenyl)(methyl)carbamoyl]oxime], in series [1], the 50% lethal dose (LD50) at 336 h came out at 12.5 mg/kg. Also, the “LD50 relative to that of aldicarb” value in the series with rats is listed as 25 times. Moreover, the “Enhancement LD50 Derivative/LD50 Aldicarb” value in the series on rats was found to be 25. The mortality at 156 ppm in the series on Plum curculio [2] (residual 7-day, PC, 156 PPM) is 5%; with Plum curculio [3] (initial, PC, 156 PPM, 48 hours), 0%; with Two-spotted spider mite (setting [9]), 100%. Besides, the mortality at 312 ppm with Plum curculio [2] (residual 7-day, PC, 312 PPM) stood at 9.5%; in the series with Southern armyworm (setting [11]) it was 0%. The mortality at 1250 ppm in the series on Plum curculio [2] (residual 7-day, PC, 1250 PPM) came to 5%; with Plum curculio [3] (setting [4]) it was 55%; with Two-spotted spider mite (setting [10]), 100%; with Southern armyworm (setting [12]), 0%. In addition, the mortality at 10 ppm with Plum curculio [3] (initial, PC, 10 PPM, 48 hours) came out at 0%; in the series with Pea aphid (setting [5]), 0%; in the series on Two-spotted spider mite (setting [7]) it was 98%. For the same compound, the mortality at 39 ppm in the series with Plum curculio [3] (initial, PC, 39 PPM, 48 hours) is 5%; in the series on Pea aphid (setting [6]) it was 64%; in the series on Two-spotted spider mite (setting [8]) it was 89%.
On to `CSC(C)(C)C=NOC(=O)N(C)SN(C)C` [Example IV, 2-Methyl-2-(methylthio)propanal O-[(dimethylaminosulfenyl)-(methyl)carbamoyl]oxime], for which the “systemic activity compared with aldicarb” value in the series on insects and mites is reported as “substantially the same as aldicarb”. Also, the mortality at 625 ppm in the series on Plum curculio [2] and in the series on Southern armyworm was 0% in each case. For the same compound, the mortality at 1250 ppm is 0% in the series with Plum curculio [2] (residual 7-day, PC, 1250 PPM); 100% in the series with Two-spotted spider mite (setting [10]); 20% in the series with Southern armyworm (setting [12]). Moreover, the mortality at 5 ppm in the series with Pea aphid (Acyrthosiphon pisum, 48 h, systemic, PA, 5 PPM, read-out: Percent Kill) was found to be 100%; with Two-spotted spider mite (initial, SM, 5 PPM, 48 hours, read-out: Percent Kill), 17%. Also, the mortality at 10 ppm is 100% with Pea aphid (setting [5]) and 36% with Two-spotted spider mite (setting [7]). In addition, the mortality at 312 ppm in the series on Pea aphid (Acyrthosiphon pisum, 48 h, systemic, PA, 312 PPM, read-out: Percent Kill) is 100%. Further, in the series with Two-spotted spider mite (initial, SM, 20 PPM, 48 hours, read-out: Percent Kill), the mortality at 20 ppm was 83%. Besides, the mortality at 39 ppm with Two-spotted spider mite (setting [8]) worked out at 100%. In addition, the mortality at 156 ppm in the series on Two-spotted spider mite (setting [9]) came to 0%.

The values are drawn from US4108991A, “N-aminosulfenyl derivatives of aldicarb” (priority 1976, dated 1978).
